As a reminder, the Ki is a measure of affinity in units of concentration, obtained from inhibition or displacement. As a reminder, the EC50 is the concentration needed to bring the measured effect to its halfway point.

SMILES strings stand for the structures. “Also recorded” adds a separate entry of the source. Read-outs that look alike come from different tables or passages of the source. Some results are limits rather than exact numbers.

The source of these data is patent publication US20250145566A1, “PHENETHYLAMINE DERIVATIVES, COMPOSITIONS, AND METHODS OF USE” (Cybin IRL Limited, priority 2022, published 2025).

The target of one data set is T1, 5-HT2A receptor (Homo sapiens, UniProt P28223).
T1 construct: host or cells: HEK293 (ATCC CRL-1573), transient, membranes
Kind of data set: 5-HT2A radioligand ([3H]LSD) competition binding. The note with it: for affinity at 5-HT2A receptors, comparison in words: [3H]LSD competition binding.

The nature of data set [1]: Rat liver microsomes (RLM) in vitro metabolism. The note with it: Sprague-Dawley. It counts as in vitro ADME. On the procedure: (§1) Rat Liver Microsomes (RLM). Male Sprague-Dawley rat liver microsomes were purchased from XenoTech. The reaction mixture, minus NADPH, was prepared as described in Table 10. The test compound was added into the reaction mixture at a final concentration of 1 μM. The control compound, testosterone, was run simultaneously with the test compound in a separate reaction. The reaction mixture (without cofactor) was equilibrated in a shaking water bath at 37° C. for 5 minutes. The reaction was initiated by the addition of the cofactor, and the mixture was incubated in a shaking water bath at 37° C. Aliquots (150 μL) were withdrawn at 0, 5, 10, 20, 30, 60, and for some assays at 120 minutes. Test compound and testosterone samples were immediately combined with 150 μL of ice-cold acetonitrile (ACN) containing 0.1% formic acid and internal standard to terminate the reaction. The samples were then mixed and centrifuged to precipitate proteins. All samples were assayed by LC-MS/MS using electrospray ionization. The peak area response ratio (PARR) of analyte to internal standard at each time point was compared to the PARR at time 0 to determine the percent remaining at each time point. Half-lives were calculated using GraphPad software, fitting to a single-phase exponential decay equation.
(§2) In a different series of reactions using RLM, a 10 mM stock solution of the test compound was prepared in DMSO. From this stock solution, an intermediate stock solution of 1 mM was prepared by diluting the compound in DMSO and from this intermediate stock solution, a working solution of 0.30 mM was prepared by diluting the compound in ACN:Water (50:50) as a cocktail of two compounds (i.e., 30 μL the non-deuterated and the deuterated compound in 40 μL diluent in 100 μL total volume). Following this, a master mix of rat liver microsomes (final concentration 0.5 mg/ml, Xenotech Cat #R1000; Lot #1610290) and 0.1 M potassium phosphate buffer was prepared and pre-incubated for 5 min at 37° C. The test compound mixture was then added to achieve a final test article concentration of 1 μM (for each analog if co-dosed; 0.2% DMSO); verapamil was used as a positive control. Subsequently, 10 mM NADPH prepared in 0.1 M potassium phosphate buffer was added (final concentration 1 mM) to initiate the reaction and samples were incubated at 37° C. for the desired time points (0, 5, 15, 30, 45, 60 min). At each time point, 40 μL of the samples were withdrawn and reactions were stopped using 200 μL chilled ACN containing 0.1% formic acid and internal standard carbamazepine (10 ng/mL). The samples were centrifuged, and the supernatant was analyzed by LC-MS/MS. The percent compound remaining at each time point was calculated with respect to that of the 0 min sample. The data were then analyzed to calculate half-life. Blank samples were prepared using DMSO (without the test compound).
(Liver microsomes are vesicles of endoplasmic reticulum, rich in cytochrome P450 enzymes.)

For the next data set, the system named is Rat Liver Microsomes. As to the kind of experiment: Rat liver microsomes (RLM) in vitro metabolism. In kind it is in vitro ADME. On the procedure: as §1, §2
Another data set has as its target T2, MAO-A (Homo sapiens, UniProt P21397).
T2 construct: purchased XenoTech (first series); Corning (second series) Corning 456283
T2 sequence (P21397 1-527): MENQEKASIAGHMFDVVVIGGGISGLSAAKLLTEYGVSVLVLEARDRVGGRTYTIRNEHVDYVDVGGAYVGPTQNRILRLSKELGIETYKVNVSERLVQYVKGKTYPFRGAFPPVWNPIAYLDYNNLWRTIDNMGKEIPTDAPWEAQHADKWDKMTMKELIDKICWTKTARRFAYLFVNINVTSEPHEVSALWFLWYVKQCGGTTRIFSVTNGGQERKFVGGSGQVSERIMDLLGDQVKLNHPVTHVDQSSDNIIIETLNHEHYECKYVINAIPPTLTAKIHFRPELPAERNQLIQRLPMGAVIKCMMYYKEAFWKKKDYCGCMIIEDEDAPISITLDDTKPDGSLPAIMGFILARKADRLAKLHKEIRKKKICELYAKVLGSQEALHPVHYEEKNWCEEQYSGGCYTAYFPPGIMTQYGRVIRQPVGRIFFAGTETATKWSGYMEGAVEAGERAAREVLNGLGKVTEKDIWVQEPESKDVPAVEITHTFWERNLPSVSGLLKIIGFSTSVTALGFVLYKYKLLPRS
As to the kind of experiment: Recombinant human MAO-A in vitro metabolism. The note with it: for half-life at 1 µM: human, recombinant human MAO-A. In kind it is in vitro ADME. The method, then:
Recombinant human MAO-A. hrMAO-A and MAO control were purchased from XenoTech. The reaction mixture was prepared as described in Table 11. The test compound was added into the reaction mixture at a final concentration of 1 μM. The positive control kynuramine (25 μM) was run simultaneously with the test compound in a separate reaction. The reaction mixture (without test compounds or kynuramine) was equilibrated in a shaking water bath at 37° C. for 5 minutes. The reaction was initiated by the addition of the test compound or kynuramine, and the mixture was incubated in a shaking water bath at 37° C. Aliquots (150 μL) of the test compound reaction mixture were withdrawn at 0, 5, 10, 20, 30, 60, and for some assays at 120 minutes. Aliquots (150 μL) of the positive control reaction mixture were withdrawn at 0 and 30 minutes. Test compound and kynuramine samples were immediately combined with 150 μL of ice-cold 100% acetonitrile containing 0.1% formic acid and internal standard (0.2 μM metoprolol) to terminate the reaction. The samples were then mixed and centrifuged to precipitate proteins. All samples were assayed by LC-MS/MS. The peak area response ratio (PARR) of analyte to internal standard at each time point was compared to the PARR at time 0 to determine the percent remaining at each time point. Half-lives were calculated using GraphPad software, fitting to a single-phase exponential decay equation.
(§3) In a different series of reactions using human MAO-A and MAO-B, a 10 mM stock solution of the test compound was prepared in DMSO. From this stock solution, an intermediate stock solution of 1 mM was prepared by diluting the compound in DMSO and from this intermediate stock solution, a working solution of 0.30 mM was prepared by diluting the compound in ACN:Water (50:50) as cocktail of 2 compounds (30 μL each compound in 40 μL diluent for 100 μL). Following this, a master mix of 0.1 M potassium phosphate buffer and test compound mixture i.e., the non-deuterated and the deuterated analog, were prepared to achieve final drug concentration of 1 μM (0.2% DMSO) for the required number of reactions. The aforementioned master mix was pre-incubated at 37° C. for 5 min. To this master mix, MAO-A (final protein conc. 0.1 mg/mL; Corning Cat #456283; Lot #1173003) or MAO-B (final protein conc. 0.1 mg/mL; Corning Cat #456284; Lot #0318001) was added to initiate the reaction. The samples were then incubated at 37° C. for the desired time points. At each time point (0, 5, 15, 30, 45, 60), 40 μL of the samples were withdrawn and reactions were stopped using 200 μL chilled ACN containing 0.1% formic acid and internal standard Carbamazepine (10 ng/mL). The samples were centrifuged, and the supernatant was analyzed by LC-MS/MS. The percent compound remaining at each time point was calculated with respect to that of the 0 min sample. The data were then analyzed to calculate half-life and intrinsic clearance (CLint). Blank samples were prepared using DMSO (without the test compound).

The target of another data set is T3, MAO-B (Homo sapiens, UniProt P27338).
T3 construct: purchased Corning 456284
T3 sequence (P27338 1-520): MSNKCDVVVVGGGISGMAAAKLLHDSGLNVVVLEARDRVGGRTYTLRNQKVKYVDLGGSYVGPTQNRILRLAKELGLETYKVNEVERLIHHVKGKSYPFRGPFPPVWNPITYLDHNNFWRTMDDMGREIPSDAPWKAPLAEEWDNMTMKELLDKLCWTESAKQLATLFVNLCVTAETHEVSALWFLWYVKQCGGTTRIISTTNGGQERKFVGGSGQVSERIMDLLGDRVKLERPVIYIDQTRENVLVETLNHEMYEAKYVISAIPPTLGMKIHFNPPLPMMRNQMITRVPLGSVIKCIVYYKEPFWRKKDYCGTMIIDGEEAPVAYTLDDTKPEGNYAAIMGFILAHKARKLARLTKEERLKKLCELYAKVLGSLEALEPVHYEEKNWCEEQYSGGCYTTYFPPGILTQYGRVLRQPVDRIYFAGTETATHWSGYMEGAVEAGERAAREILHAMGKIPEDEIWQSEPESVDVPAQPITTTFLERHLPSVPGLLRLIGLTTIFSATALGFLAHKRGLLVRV
As to the kind of experiment: human MAO-B in vitro metabolism. It counts as in vitro ADME. The note with it: human MAO-B enzyme (Corning), test compound 1 μM, read-out: MAO-B t1/2. The method, then: as §3

A further data set concerns the target T4, 5-HT2A (h) (Homo sapiens, UniProt P28223).
T4 construct: expressed in transfected cells; host or cells: HEK-293 cells
The note with it: literature, single enantiomers, cited from earlier work; for EC50: read-out: Function 5-HT2A EC50.

The mark [2] stands for this setting: rat liver microsomes (Table 18), read-out: RLM t1/2.
Where [3] appears, read: pH 7.4, rat liver microsomes, test compound 1 μM, * = apparent NADPH independent reaction, read-out: RLM t1/2.
[4] abbreviates: human recombinant MAO-A, test compound 1 μM, read-out: MAO-A t1/2.
[5] abbreviates: rat liver microsomes (Table 17), read-out: RLM t1/2.

T1 sequence (P28223 whole entry): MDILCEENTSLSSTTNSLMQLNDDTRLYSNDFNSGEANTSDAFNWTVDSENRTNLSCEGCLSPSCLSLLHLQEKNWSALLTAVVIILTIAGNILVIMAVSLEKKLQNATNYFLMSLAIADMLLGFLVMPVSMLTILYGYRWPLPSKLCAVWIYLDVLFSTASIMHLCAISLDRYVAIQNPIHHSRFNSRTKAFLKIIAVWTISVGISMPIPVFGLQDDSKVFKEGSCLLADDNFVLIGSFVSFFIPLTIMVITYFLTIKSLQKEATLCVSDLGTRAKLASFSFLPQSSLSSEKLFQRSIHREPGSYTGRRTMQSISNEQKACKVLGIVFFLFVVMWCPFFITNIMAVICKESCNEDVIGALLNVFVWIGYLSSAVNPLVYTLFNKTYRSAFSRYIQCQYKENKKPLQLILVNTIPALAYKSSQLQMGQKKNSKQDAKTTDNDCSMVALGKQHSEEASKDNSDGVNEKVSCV
T4 sequence (P28223 whole entry): as above

Turning to `COc1cc(SC(F)(F)F)c(OC)cc1CC(C)N` (racemic) [IV-1 (racemic)], the Ki at 5-HT2A receptor (agonist radioligand: [3H]LSD (Table 18), read-out: 5HT2A Ki) stood at 7 nM. In data set [1] (setting [2]), the half-life at 1 µM was 40.7 min.
For the compound `COc1cc(SC(F)(F)F)c(OC)cc1CC(C)N` (racemic) [IV-1, 1-(2,5-dimethoxy-4-((trifluoromethyl)thio)phenyl)propan-2-amine], the “affinity at 5-HT2A receptors, comparison in words” value on 5-HT2A receptor is recorded as “affinity at 5-HT2A receptors equal or superior to both enantiomers of Reference Compound 2”. The “stability / half-life in RLMs, comparison in words” value in the data set on Rat Liver Microsomes (compared with Reference Compound 2) is listed as “greater stability in RLMs than Reference Compound 2”.
As for `[2H]C1([2H])Oc2cc(CCN)ccc2S1` [II-15, 2-(benzo[d][1,3]oxathiol-6-yl-2,2-d2)ethan-1-amine], the half-life at 1 µM in data set [1] (setting [3]) is less than 5 min; at MAO-A (1 μM test compound, read-out: half-life, MAO-A metabolism), not above 8 min; on MAO-A (setting [4]), 4.42 min; on MAO-B, less than 5 min.
With `[2H]C1([2H])Oc2cc(CC(C)N)ccc2S1` (stereo not drawn) [II-17, 1-(benzo[d][1,3]oxathiol-6-yl-2,2-d2)propan-2-amine], the half-life at 1 µM in data set [1] (setting [3]) is 12.6 min; on MAO-A (setting [4]), more than 120 min; on MAO-B, 892 min. In addition, on MAO-A (result in words), the “stability in the presence of MAO-A” value is reported as “stable”.
As for `COc1cc(CCN)cc(OC)c1SC(F)(F)F` [III-5, 2-(3,5-dimethoxy-4-((trifluoromethyl)thio)phenyl)ethan-1-amine], at 5-HT2A receptor, the inhibitory constant (Ki) was 1.6 nM and the “affinity at 5-HT2A receptors, comparison in words” value is listed as “superior affinity at 5-HT2A receptors compared to Reference Compound 1; also recorded: affinity equal to or better than classic 2,4,5-substituted 5-HT2A agonists, such as Reference Compounds 2-4”. Also, the inhibition constant (Ki) at 5-HT2A receptor (read-out: 5HT2A Ki at the low-affinity inactive state, [3H]LSD, two-site fit) was 676 nM. Besides, the half-life at 1 µM in data set [1] (rat, rat liver microsomes, 1 μM test compound, read-out: half-life in the presence of rat liver microsome) is more than 120 min. Also, the “RLM t1/2” value with Rat Liver Microsomes (rat liver microsomes (Table 17)) was more than 120 min.
In turn, `[2H]C([2H])([2H])Oc1cc(SC)c(OC([2H])([2H])[2H])cc1C[C@@H](C)N` [IV-9 (R)] had a Ki at 5-HT2A receptor of 26 nM. The half-life at 1 µM in data set [1] (setting [2]) is 16.6 min; at MAO-A (Table 18, read-out: MAO-A t1/2), more than 120 min.
For `[2H]C([2H])([2H])Oc1cc(SC)c(OC([2H])([2H])[2H])cc1C[C@H](C)N` [IV-9 (S)], in that order: 56 nM, 6.3 min and more than 120 min.
As to `C[C@@H](N)Cc1ccc2c(c1)OCO2` [R-MDA], at 5-HT2A (h), the “Function 5-HT2A EMAX” value is reported as “EMAX = 95%” and the EC50 is 5600 nM.
In turn, `COc1cc(SC)c(OC)cc1C[C@@H](C)N` [Reference Compound 2 (R)] returned a Ki at 5-HT2A receptor of 7 nM. Besides, the half-life at 1 µM in data set [1] (setting [5]) is 16 min; at MAO-A (Table 18, read-out: MAO-A t1/2), more than 120 min.
The corresponding values for `COc1cc(SC)c(OC)cc1C[C@H](C)N` [Reference Compound 2 (S)] are 18 nM, 6.34 min and more than 120 min.
As to `COc1cc(SC)c(OC)cc1CCN` [Reference Compound 3, 2-(2,5-dimethoxy-4-(methylthio)phenyl)ethan-1-amine, reference compound], in data set [1] (setting [5]), the half-life at 1 µM was 6.09 min.
As to `COc1cc(C(F)(F)F)c(OC)cc1CCN` [Reference Compound 4, 2-(2,5-dimethoxy-4-(trifluoromethyl)phenyl)ethan-1-amine, reference compound], the affinity on 5-HT2A receptor, expressed as Ki, was 3.4 nM. Besides, in data set [1] (setting [5]), the half-life at 1 µM was 16.6 min.
Regarding `C[C@H](N)Cc1ccc2c(c1)OCO2` [S-MDA], at 5-HT2A (h), the “Function 5-HT2A EMAX” value is “EMAX = 89%” and the EC50 is 18200 nM.
